Laboratory results taken from patent US8859574B2 (IRM LLC, priority 2008, dated 2014).
pIC50: −log10 of the molar value.

target: T1, IGF-1R Ba/F3 (Homo sapiens, UniProt P08069); assay: Ba/F3 Cell Viability Inhibition Assay (IGF-1R Ba/F3); format: cell-based, murine; conditions: Tel-TK transformed Ba/F3 cells, 48 hours, Britelite luminescence
T1 construct: fused on or other part: TEL- (or BCR-) IGF-1R in Ba/F3: the kinase part holds the site
How it was run: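 IL-3-independent murine Ba/F3 cells transformed with a TEL/BCR-fused IGF-1R kinase were seeded at 3750 cells/well and exposed to serially diluted compound for 48 h at 37 °C. Viability was read by Britelite luminescence. IC50 is the concentration giving 50% of DMSO-control viability, from a logistic fit.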

T1 sequence (P08069 999-1274 limits assumed): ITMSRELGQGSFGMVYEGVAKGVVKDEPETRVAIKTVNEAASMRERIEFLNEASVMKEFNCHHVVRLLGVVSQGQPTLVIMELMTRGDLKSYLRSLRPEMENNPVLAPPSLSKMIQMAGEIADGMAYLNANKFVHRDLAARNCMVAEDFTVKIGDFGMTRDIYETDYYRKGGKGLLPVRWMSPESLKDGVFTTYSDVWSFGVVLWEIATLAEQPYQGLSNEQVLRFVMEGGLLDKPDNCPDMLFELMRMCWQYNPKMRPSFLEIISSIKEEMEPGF

SMILES	pIC50
CNC1(C(=O)N2CCC(c3cc(F)c(Nc4ncc(Cl)c(Nc5cc(C)[nH]n5)n4)cc3C)CC2)CCC1 [Compound 177, (4-(4-(5-chloro-4-(5-methyl-1H-pyrazol-3-ylamino)pyrimidin-2-ylamino)-5-fluoro-2-methylphenyl)piperidin-1-yl)(1-(methylamino)cyclobutyl)methanone]	7.10
Cc1cc(Nc2nc(Nc3cc(C)c(C4CCNCC4)cc3C)ncc2C)n[nH]1 [Compound 178, N2-(2,5-dimethyl-4-(piperidin-4-yl)phenyl)-5-methyl-N4-(5-methyl-1H-pyrazol-3-yl)pyrimidine-2,4-diamine]	5.49
Cc1cc(Nc2nc(Nc3cc(C)c(C4CCN(C[C@H](O)C(F)(F)F)CC4)cc3C)ncc2C)n[nH]1 [Compound 179, (S)-3-(4-(2,5-dimethyl-4-(5-methyl-4-(5-methyl-1H-pyrazol-3-ylamino)pyrimidin-2-ylamino)phenyl)piperidin-1-yl)-1,1,1-trifluoropropan-2-ol]	6.92
Cc1cc(Nc2nc(Nc3cc(C)c(C4CCCN(C(=O)CN(C)C)C4)cc3C)ncc2Cl)n[nH]1 (stereo not drawn) [Compound 180, 1-(3-(4-(5-chloro-4-(5-methyl-1H-pyrazol-3-ylamino)pyrimidin-2-ylamino)-2,5-dimethylphenyl)piperidin-1-yl)-2-(dimethylamino)ethanone]	7.60
Cc1cc(Nc2nc(Nc3cc(C)c(C4CCCCN4CC(N)=O)cc3C)ncc2Cl)n[nH]1 (stereo not drawn) [Compound 181, 2-(2-(4-(5-Chloro-4-(5-methyl-1H-pyrazol-3-ylamino)pyrimidin-2-ylamino)-2,5-dimethylphenyl)piperidin-1-yl)acetamide]	7.62
CNC(=O)CN1CCCCC1c1cc(C)c(Nc2ncc(Cl)c(Nc3cc(C)[nH]n3)n2)cc1C (stereo not drawn) [Compound 182, 2-(2-(4-(5-chloro-4-(5-methyl-1H-pyrazol-3-ylamino)pyrimidin-2-ylamino)-2,5-dimethylphenyl)piperidin-1-yl)-N-methylacetamide]	7.72
CCC(C(N)=O)N1CCC(c2cc(C)c(Nc3ncc(Cl)c(Nc4cc(C)[nH]n4)n3)cc2C)CC1 (stereo not drawn) [Compound 185, 2-(4-(4-(5-chloro-4-(5-methyl-1H-pyrazol-3-ylamino)pyrimidin-2-ylamino)-2,5-dimethylphenyl)piperidin-1-yl)butanamide]	8.05
Cc1cc(C2CCN(C(=O)CN(C)C)CC2)c(C)cc1Nc1ncc(Cl)c(Nc2cc(C3CC3)[nH]n2)n1 [Compound 186, 1-(4-(4-(5-chloro-4-(5-cyclopropyl-1H-pyrazol-3-ylamino)pyrimidin-2-ylamino)-2,5-dimethylphenyl)piperidin-1-yl)-2-(dimethylamino)ethanone]	7.92
Cc1cc(Nc2nc(Nc3cc(C)c(C4CCCN(C(=O)C5(N)CC5)C4)cc3C)ncc2Cl)n[nH]1 (stereo not drawn) [Compound 187, (1-aminocyclopropyl)(3-(4-(5-chloro-4-(5-methyl-1H-pyrazol-3-ylamino)pyrimidin-2-ylamino)-2,5-dimethylphenyl)piperidin-1-yl)methanone]	7.02
Cc1cc(C2CCN(C(=O)C3(N)CC3)CC2)c(C)cc1Nc1ncc(Cl)c(Nc2cc(C3CC3)[nH]n2)n1 [Compound 188, (1-aminocyclopropyl)(4-(4-(5-chloro-4-(5-cyclopropyl-1H-pyrazol-3-ylamino)pyrimidin-2-ylamino)-2,5-dimethylphenyl)piperidin-1-yl)methanone]	7.72
CCC(C(=O)NC)N1CCC(c2cc(C)c(Nc3ncc(Cl)c(Nc4cc(C)[nH]n4)n3)cc2C)CC1 (stereo not drawn) [Compound 189, 2-(4-(4-(5-chloro-4-(5-methyl-1H-pyrazol-3-ylamino)pyrimidin-2-ylamino)-2,5-dimethylphenyl)piperidin-1-yl)-N-methylbutanamide]	8.15
CCNC(=O)C(CC)N1CCC(c2cc(C)c(Nc3ncc(Cl)c(Nc4cc(C)[nH]n4)n3)cc2C)CC1 (stereo not drawn) [Compound 190, 2-(4-(4-(5-chloro-4-(5-methyl-1H-pyrazol-3-ylamino)pyrimidin-2-ylamino)-2,5-dimethylphenyl)piperidin-1-yl)-N-ethylbutanamide]	8.15
